Where two headings read alike, the source gives them in different places.
Tests used:
CEM-SS cells = test: CEM-SS MTT assay, cytotoxicity (Table I); assay type: cell-based, human
HIV-1 = details: for EC50 / Maximum Protection (%): CEM-SS MTT assay; for protecting cells against HIV infection: text summary of Table I
[1] = tested on: HCMV isolates Towne, AD169, E. Mann, Coffman, C9208; test: Anti-CMV plaque reduction assay against various laboratory and clinical isolates (Example 40); assay type: cell-based, human cytomegalovirus
Procedure: On the date of assay, the drug is made up at twice the desired concentration in 2x MEM and then serially diluted 1:5 in 2x MEM using six concentrations of drug. The initial starting concentration is usually 200 gg/mL down to 0.06 μg/mL. […] The media is then aspirated from the wells and 0.2 mL of virus is added to each well in duplicate with 0.2 mL of media being added to drug toxicity wells. The plates are then incubated for one hour with shaking every fifteen minutes. […] This will give final drug concentrations beginning with 100 μg/mL and ending with 0.03 μg/mL and a final agarose overlay concentration of 0.5%. The drug agarose mixture is applied to each well in 2 mL volume and the plates then incubated for three days, after which the cells were stained with a 1.5% solution of neutral red. At the end of 4-6hr incubation period, the stain is aspirated, and plaques counted using a stereomicroscope at lOx magnification. The procedure again is nearly the same as for HSV with a few minor changes. […] The assay is incubated for 14 days with the additional 1 mL overlays being applied on days four and eight. The procedure for the liquid overlay plaque assay is similar to that using the agarose overlay. The procedure for adding the virus is the same as for the regular plaque assay. The drugs are made up in a concentration to be used in MEM with 2% FBS. The drugs are not made up at 2x concentration as in the previous assays but are made up at the desired concentration. For HSV-1 and HSV-2 assays, an antibody preparation obtained from Baxter Health Care Corporation is diluted 1:500 and added to the media that the drug is diluted in. For CMV and VZV, no antibody in the overlay is utilized. For the CMV assay, additional medium without new drug is added on day five and allowed to incubate for a total of 10 days. For VZV, additional medium is added on day five and incubated for a total of 10 days. At the end of the incubation period for all of the assays, 2 mL of 1:10 dilution of stock neutral is added to each well incubated for six hours. The liquid is then aspirated off and plaques enumerated using a stereomicroscope. Five calanolide analogues, prepared as described above, were further evaluated for their anti-HCMV activity in plaque reduction assay against various laboratory and clinical isolates (Towne, AD 169, E. Mann, Coffinan, and […]).

HBV = HBV replication in cultures of 2.2.15 cells, extracellular HBV virion DNA (primary assay); details: read-out: HBV EC50; Table II
Procedure: Both intracellular and extracellular HBV DNA are analyzed in order to (i) allow for verification of compound efficacy and (ii) provide possible data on the target site in the HBV replication pathway for the compound from examination of the pattern of viral replicative forms. The culture medium is changed daily during the treatment period to (i) prevent the buildup of potentially toxic metabolites derived from test compounds and (ii) provide an analysis of HBV virion production during discrete 24-hour intervals which enables a quantitative comparison of any effect on virion production.
The analysis of HBV DNA is performed using blot hybridization techniques (Southern and slot blot) and [^32P]-labeled HBV-specific probes. HBV DNA levels are measured by comparison to known amounts of HBV DNA standards applied to every nitrocellulose membrane (gel or slot blot). An AMBIS beta scanner, which measures the radioactive decay of the hybridized probes directly from the nitrocellulose membranes, is used for the quantitative analysis. Standard curves, generated by multiple analyses, are used to correlate CPM measurements made by the beta scanner with relative levels of target HBV DNA. The levels of HBV virion DNA released into the culture medium are analyzed by a slot blot hybridization procedure.

HCMV = HCMV semi-automated CPE-inhibition assay in human foreskin fibroblast cells; assay type: cell-based, human cytomegalovirus; details: Table II
[2] = tested on: human foreskin fibroblast cells; test: Toxicity run with the HCMV assay, human foreskin fibroblast cells; assay type: cell-based; details: Table II
Procedure: [table] […] The media from the wells is then aspirated and 2 mL of each drug concentration is then added to each well. The cells are then incubated in a CO2 incubator at 37° C. for 72 h. At the end of this time, the media-drug solution is removed and the cells washed. […] The cell-media mixture is then pipetted up and down vigorously to break up the cell suspension, and 0.2 mL of the mixture is added to 9.8 mL of Isoton III and counted using a Coulter Counter. Each sample is counted three times with three replicate wells per sample. The procedure for plating cells and adding drug is the same as for the MTT Assay. After drug addition, the plates are incubated for seven days in a CO2 incubator at 37° C. […] This is incubated in the CO2 incubator for one hour. The dye is aspirated and the cells are washed using a Nunc Plate Washer. […] The plates are rotated for 15 minutes and the optical densities are read at 550 nm on a plate reader.

2.2.15 cells = test: Toxicity in 2.2.15 cells, neutral red dye uptake; assay type: cell-based, human; details: Table II; read-out: HBV IC50
Procedure: Cells of 2.2.15 were grown to confluence in 96-well flat-bottomed tissue culture plates and treated with compounds (in 0.2 mL culture medium/well) as described above. Four concentrations of each compound were assayed, each in triplicate cultures, in 3- to 10-fold steps. Untreated control cultures were maintained on each 96-well plate. On each 96-well plate, wells containing no cells were used to correct for light scattering.

Row | Compound | IC50 (CEM-SS cells) [µM] | EC50 (HIV-1) [µM] | Maximum Protection (%) (HIV-1) | protecting cells against HIV infection (HIV-1) | other results
1 | CCCc1cc(=O)oc2c3c(c4c(c12)OC(C)(C)C=C4)OC(C)C(C)C3=O (racemic) [(±)-7, 10,11-trans-dihydro-4-propyl-6,6,10,11-tetramethyl-2H,6H,12H-benzo[1,2-b:3,4-b′:5,6-b″]-tripyran-2,12-dione] | 19.1 | 1.18 | 90 | highly efficacious | EC50 ([1]; isolate AD169): 3.16 µM; EC50 ([1]; isolate C9208): 7.16 µM; EC50 ([1]; isolate Coffman): 3.34 µM; EC50 ([1]; isolate E. Mann): 3.16 µM; EC50 ([1]; isolate Towne): 3.34 µM
2 | CCCc1cc(=O)oc2c(C(=O)C(C)(C)C(C)O)c(O)c3c(c12)OC(C)(C)C=C3 (racemic) [(±)-14a, (±)-6,6-Dimethyl-10-(2,2-dimethyl-3-hydroxybutyro)-9-hydroxy-4-propyl-2H,6H-benzo[1,2-b:3,4-b′]dipyran-2-one] | 37 |  |  |  | 
3 | CCCc1cc(=O)oc2c(C(=O)C(C)C(C)(C)O)c(O)c3c(c12)OC(C)(C)C=C3 (racemic) [(±)-14b, (±)-6.6-Dimethyl-10-(2,3-dimethyl-3-hydroxybutyro)-9-hydroxy4-propyl-2H,6H-benzo[1,2-b:3,4-b′]dipyran-2-one] | 27.1 |  |  |  | 
4 | CCCc1cc(=O)oc2c3c(c4c(c12)OC(C)(C)C=C4)OC(C)C(C)(C)C3O (racemic) [(±)-16a, (±)-10,12-cis-10,11-Dihydro-12-hydroxy-6,6,10,11,11-pentamethyl-4propyl-2H, 6H, 12H-benzo [1,2-b:3,4-b′:5,6-b″]tripyran-2-one] | 20.3 |  |  |  | 
5 | CCCc1cc(=O)oc2c3c(c4c(c12)OC(C)(C)C=C4)OC(C)C(C)(C)C3O (racemic) [(±)-16b, (±)-10,12-trans-10,11-dihydro-12-hydroxy-6,6,10,11,11-pentamethyl-4-propyl-2H,6H,12H-benzo [1,2-b:3,4-b′:5,6-b″]tripyran-2-one] | 16.9 | 2.36 | 78 | highly efficacious | 
6 | CCCc1cc(=O)oc2c3c(c4c(c12)OC(C)(C)C=C4)OC(C)(C)C(C)C3O (racemic) [(±)-16c, (±)-11,12-cis-10,11-Dihydro-12-hydroxy-6,6,10,10,11-pentamethyl-4-propyl-2H, 6H, 12H-benzo [1,2-b:3,4-b′:5,6-b″]tripyran-2-one] | 21.3 |  |  |  | 
7 | CCCc1cc(=O)oc2c3c(c4c(c12)OC(C)(C)C=C4)OC(C)(C)C(C)C3O (racemic) [(±)-16d, (±)-11,12-trans-10,11-dihydro-12-hydroxy-6,6,10,10,11-pentamethyl-4-propyl-2H,6H,12H-benzo [1,2-b:3,4-b′:5,6-b″]tripyran-2-one] | 21 | 5.66 | 88 | highly efficacious | 
8 | CCCc1cc(=O)oc2c3c(c4c(c12)OC(C)(C)C=C4)OC(CC)C(C)C3O (racemic) [(±)-16e, (±)-10,11-trans-11,12-cis-10,11-Dihydro-10-ethyl-12-hydroxy-4-propyl-6,6,11-trimethyl-2H,6H,12H-benzo [1,2-b:3,4-b′:5,6-b″]tripyran-2-one] | 14 | 1.67 | 88 | highly efficacious | 
9 | CCCc1cc(=O)oc2c3c(c4c(c12)OC(C)(C)C=C4)OC(CC)C(C)C3O (racemic) [(±)-16f, (±)-10,11-qrans-11,12-trans-10,11-dihydro-10-ethyl-12-hydroxy4-propyl-6,6,11-trimethyl-2H,6H,12H-benzo [1,2-b:3,4-b′:5,6-b″]tripyran-2-one] | 17.7 | 1.97 | 86 | highly efficacious | 
10 | CCCc1cc(=O)oc2c3c(c4c(c12)OC(C)(C)C=C4)OC(CC)C(C)C3O (racemic) [(±)-16g, (±)-10,11-cis-11,12-trans-10,11-Dihydro-10-ethyl-12-hydroxy-4-propyl-6,6,11-trimethyl-2H,6H,12H-benzo [1,2-b:3,4-b′:5,6-b″]tripyran-2-one] | 11.6 |  |  |  | 
11 | CCCc1cc(=O)oc2c3c(c4c(c12)OC(C)(C)C=C4)OC(CC)C(C)C3O (racemic) [(±)-16h, (±)-10,11,12-cis-10,11-dihydro10-ethyl-12-hydroxy4-propyl-6,6,11-trimethyl-2H,6H,12H-benzo [1,2-b:3,4-b′:5,6-b″]tripyran-2-one] | 20.9 |  |  |  | 
12 | CCCc1cc(=O)oc2c3c(c4c(c12)OC(C)(C)C=C4)O[C@H](C)[C@@H](C)C3=NO (racemic) [(±)-19a, (±)10,11-trans-10,11-Dihydro4-propyl-6,6,10,11-tetramethyl-2H, 6H, 12H-benzo [1,2-b:3,4-b′:5,6-b″]tripyran-2,12-dione-12-oxime] | 15.8 |  |  |  | 
13 | CCCc1cc(=O)oc2c3c(c4c(c12)OC(C)(C)C=C4)OC(C)C(C)C3=NOC (racemic) [(±)-19b, (±)-10,11-trans-10,11 -Dihydro4-propyl-6,6,10,11-tetramethyl-2H, 6H, 12H-benzo [1,2-b:3,4-b′:5,6-b ″]tripyran-2,12-dione-12-methoxime] | > 100 | > 100 |  |  | 
14 | CCCc1cc(=O)oc2c3c(c4c(c12)OC(C)(C)C=C4)OC(C)C(C)C3=O (single isomer, unassigned; (-)) [(−)-7a] |  |  |  |  | EC50 (HBV): > 10 µM; HCMV EC50 (HCMV): >4.0 µg/mL; HCMV IC50 [2]: 11.9 µg/mL; IC50 (2.2.15 cells): 86 µM
15 | CCCc1cc(=O)oc2c(C(=O)[C@H](C)[C@@H](C)OC(C)=O)c(O)c3c(c12)OC(C)(C)C=C3 [(+)-10, 6,6Dimethyl-9-hydroxy-10-[2(R)-methyl-3(R)-acetoxybutyro]-4-propyl-2H,6H-benzo-[1,2-b:3,4-b′]dipyran-2-one] | 9.27 | 0.89 | 88 | highly efficacious | 
16 | CCCc1cc(=O)oc2c3c(c4c(c12)OC(C)(C)C=C4)O[C@@H](C)C(C)=C3 [Compound 22, 10(S)4-propyl-6,6,10,11-tetramethyl-2H,6H,10H-benzo [1,2-b:3,4-b′:5,6-b″]tripyran-2-one] |  |  |  |  | IC50 (CEM-SS cells; Homo sapiens): 24.7 µM
